“Also recorded” adds a separate entry of the source. Where a SMILES comes first, the peptide text is derived from it. Bridges are numbered along the chain shown (N, C = ends).
Key:
in vitro = details: 25% human male serum; for intact peptide after 2 h: 37°C; for half-life at 5 µM / remaining at 6.5 h, 5 µM / remaining at 24 h, 5 µM: male, human
Description: To investigate the effects of the modifications on proteolytic susceptibility, the disappearance of the intact peptides incubated in diluted human serum at 37°C was followed by RP-HPLC. […] Incubations were normally done for 9 h and, in some cases, longer.
Peptide stabilities were assayed in diluted serum as previously described. 25% human male serum was centrifuged at 13,000 rpm for 10 min to remove lipids and the supernatant was collected and incubated at 37°C for at least 15 min. The assay was initiated upon the addition of the test peptide to the serum for a final peptide concentration of 5 µM. 200 µL aliquots of the incubations were taken for the following time points: 0, 30, 75, 120, 240, 390 and 540 min. The aliquots were mixed with 40 µL of 15% trichloroacetic acid (TCA) and incubated at 4°C for at least 15 min to precipitate serum proteins. In the case of Com5 and Com6, 5 µL of 1 M NaOH was supplemented to the TCA to prevent peptide precipitation. The supernatant was collected for each sample after centrifugation at 13,000 rpm for 10 min and stored at −20°C. These assays were performed in triplicate.
Reverse phase high performance liquid chromatography (RP-HPLC) analysis was performed with an AKTA Purifier from Amersham Biosciences (Westborough, MA) using an uRPC C2/C18 ST 4.6/100 column from Pharmacia Biotech (SanJose, CA) of the following dimensions: bed length 100 mm, i.d. 4.6 mm, 120Å. Individually thawed samples were injected through a 100 µL loop, after which a linear gradient was run from 100% solution A (0.05% trifluoroacetic acid (TFA) in filtered water) to 100% solution B (0.045% TFA in 90% acetonitrile) with a flow rate at 0.5 mL/min. The relative concentrations of the remaining soluble peptides were analyzed by the integration of the absorbance at 215 nm as a function of retention time using the Analysis module of the Unicorn software package.

[1] = system: Staphylococcus aureus 42D; assay: Bactericidal assay (LD99.9), S. aureus in 25% human serum; format: cell-based; details: unit not given (Table 3 uses µM)
Description: In order to be able to make a direct comparison with our serum stability measurements, a few peptides were selected to be tested for antimicrobial activity in 25% human serum (Table 4). […] All LD99.9 values are higher compared to the initial assays in 10 mM sodium phosphate buffer. Contributing factors to this general loss in activity could be the increased ionic concentration, interactions with serum components such as albumin or other proteins, and peptide degradation. Both hexamers with unprotected termini, Lfc1 and Com1, are no longer active while the cyclized short peptides remained fairly antimicrobial. In human serum, Lfc5 and Lfc6 are equally anti-staphylococcal. This reflects a greater loss of activity for Lfc6, but also coincides with the lower serum stability that this peptide has compared to Lfc5 (Fig. 2C). The activities of the cyclized Com peptides were all lowered equally with a 16-fold increase in LD99.9 values compared to activities in serum-excluded media and this agrees with their similar stability profiles (Fig. 2D).
(§1) The peptides were tested for microbicidal activities against Bacillus subtilis ATCC6633, Escherichia coli ML35, and Staphylococcus aureus 42D as previously described. Suspensions of logarithmically growing test bacteria were incubated on a microtiter plate at a concentration of 10^5 colony-forming units/mL with various peptide dilutions. The medium was 100 µL of 10 mM phosphate buffer pH 7.0 supplemented with 1% (v/v) of tryptic soy broth (TSB). For later assays, human male serum was also added to a final concentration of 25%. 10 µL aliquots were collected at time 0 h and after 2 h of incubation on a rotary shaker (300 rpm) at 37°C. These were plated on blood agar plates and incubated overnight at 37°C. The Lethal Dose concentration (LD99.9) was determined, corresponding to the concentration killing >99.9% of the inoculum at 2 h. These experiments were performed in duplicate.
(§2) For the testing of the peptides' activities in different conditions, e.g. with serum, we use the same cut-off for activity as defined for Minimum Bactericidal Concentration (MBC), i.e. a 1000-fold reduction of the inoculum. However, we designate this peptide concentration with the more general term LD99.9 which can be applied to the specified conditions of the experiments performed here.

[2] = system: Staphylococcus aureus 42D; assay: Bactericidal assay (LD99.9), S. aureus; format: cell-based; details: 10 mM phosphate buffer pH 7.0 with 1% TSB, 2 h, 37°C
Description: as §1, §2

[3] = system: Bacillus subtilis ATCC6633; assay: Bactericidal assay (LD99.9), B. subtilis; format: cell-based; details: 10 mM phosphate buffer pH 7.0 with 1% TSB, 2 h, 37°C
Description: as §1, §2

Escherichia coli ML35 = assay: Bactericidal assay (LD99.9), E. coli; format: cell-based; details: 10 mM phosphate buffer pH 7.0 with 1% TSB, 2 h, 37°C
Description: as §1, §2

[4] = design: method as in PMID 15853943; details: ITC; cited from earlier work
25% human male serum = details: 37°C, up to 540 min

Molecule	half-life at 5 µM (in vitro)	LD99.9 anti-S. aureus in 25% human serum [1]	99.9% Lethal Dose Concentration (LD99.9) S. aureus [2]	99.9% Lethal Dose Concentration (LD99.9) B. subtilis [3]	99.9% Lethal Dose Concentration (LD99.9) E. coli (Escherichia coli ML35)	fragment found (25% human male serum)	other results
N=C(N)NCCC[C@H](NC(=O)[C@H](Cc1c[nH]c2ccccc12)NC(=O)[C@H](Cc1c[nH]c2ccccc12)NC(=O)[C@H](CCCNC(=N)N)NC(=O)[C@@H](N)CCCNC(=N)N)C(=O)N[C@@H](Cc1ccccc1)C(=O)O [Com1, RRWWRF] (H-RRWWRF-OH)	< 0.5 h	>120	7.5 µM	1.9 µM	60 µM	–	intact peptide after 2 h (in vitro): completely gone
CC(=O)N[C@@H](CCCNC(=N)N)C(=O)N[C@@H](CCCNC(=N)N)C(=O)N[C@@H](Cc1c[nH]c2ccccc12)C(=O)N[C@@H](Cc1c[nH]c2ccccc12)C(=O)N[C@@H](CCCNC(=N)N)C(=O)N[C@@H](Cc1ccccc1)C(=O)O [Com3, CH3CO-RRWWRF] (Ac-RRWWRF-OH)	~1 h	–	30 µM	7.5 µM	120 µM	–	intact peptide after 2 h (in vitro): almost fully degraded
CC(=O)N[C@@H](CCCNC(=N)N)C(=O)N[C@@H](CCCNC(=N)N)C(=O)N[C@@H](Cc1c[nH]c2ccccc12)C(=O)N[C@@H](Cc1c[nH]c2ccccc12)C(=O)N[C@@H](CCCNC(=N)N)C(=O)N[C@@H](Cc1ccccc1)C(N)=O [Com4, CH3CO-RRWWRF-NH2] (Ac-RRWWRF-NH2)	~1.5 h	–	7.5 µM	0.9 µM	7.5 µM	–	affinity for negatively charged membranes [4]: micromolar affinity
N=C(N)NCCC[C@@H]1NC(=O)[C@H](CCCNC(=N)N)NC(=O)[C@H](Cc2ccccc2)NC(=O)[C@H](CCCNC(=N)N)NC(=O)[C@H](Cc2c[nH]c3ccccc23)NC(=O)[C@H](Cc2c[nH]c3ccccc23)NC1=O [Com5, -RRWWRF-] (cyclo(RRWWRF))	–	30	7.5 µM	≤0.45 µM	30 µM	–	remaining at 6.5 h, 5 µM (in vitro): > 70%; remaining at 24 h, 5 µM (in vitro): ~50%
N=C(N)NCCC[C@@H]1NC(=O)[C@H](Cc2c[nH]c3ccccc23)NC(=O)[C@H](Cc2c[nH]c3ccccc23)NC(=O)[C@H](CCCNC(=N)N)NC(=O)[C@H](CCCNC(=N)N)NC(=O)[C@@H](N)CSSC[C@@H](C(N)=O)NC(=O)[C@H](Cc2ccccc2)NC1=O [Com6, CRRWWRFC-NH2] (H-CRRWWRFC-NH2; disulfide 1-8)	–	15	0.9 µM	0.9 µM	3.8 µM	–	remaining at 6.5 h, 5 µM (in vitro): ~50%
N=C(N)NCCC[C@H](NC(=O)[C@H](Cc1c[nH]c2ccccc12)NC(=O)[C@H](CCC(N)=O)NC(=O)[C@H](Cc1c[nH]c2ccccc12)NC(=O)[C@H](CCCNC(=N)N)NC(=O)[C@@H](N)CCCNC(=N)N)C(=O)O [Lfc1, RRWQWR] (H-RRWQWR-OH)	< 0.5 h	>120	30 µM	7.5 µM	60 µM	–	intact peptide after 2 h (in vitro): completely gone
CC(=O)N[C@@H](CCCNC(=N)N)C(=O)N[C@@H](CCCNC(=N)N)C(=O)N[C@@H](Cc1c[nH]c2ccccc12)C(=O)N[C@@H](CCC(N)=O)C(=O)N[C@@H](Cc1c[nH]c2ccccc12)C(=O)N[C@@H](CCCNC(=N)N)C(=O)O [Lfc3, CH3CO-RRWQWR] (Ac-RRWQWR-OH)	~1 h	–	>120 µM	60 µM	120 µM	–	intact peptide after 2 h (in vitro): almost fully degraded
CC(=O)N[C@@H](CCCNC(=N)N)C(=O)N[C@@H](CCCNC(=N)N)C(=O)N[C@@H](Cc1c[nH]c2ccccc12)C(=O)N[C@@H](CCC(N)=O)C(=O)N[C@@H](Cc1c[nH]c2ccccc12)C(=O)N[C@@H](CCCNC(=N)N)C(N)=O [Lfc4, CH3CO-RRWQWR-NH2] (Ac-RRWQWR-NH2)	~1.5 h	–	60 µM	3.8 µM	15 µM	–	–
N=C(N)NCCC[C@@H]1NC(=O)[C@H](CCCNC(=N)N)NC(=O)[C@H](Cc2c[nH]c3ccccc23)NC(=O)[C@H](CCC(N)=O)NC(=O)[C@H](Cc2c[nH]c3ccccc23)NC(=O)[C@H](CCCNC(=N)N)NC1=O [Lfc5, -RRWQWR-] (cyclo(RRWQWR))	–	60	7.5 µM	1.9 µM	7.5 µM	–	remaining at 6.5 h, 5 µM (in vitro): > 70%; remaining at 24 h, 5 µM (in vitro): ~50%
N=C(N)NCCC[C@@H]1NC(=O)[C@H](Cc2c[nH]c3ccccc23)NC(=O)[C@H](CCC(N)=O)NC(=O)[C@H](Cc2c[nH]c3ccccc23)NC(=O)[C@H](CCCNC(=N)N)NC(=O)[C@H](CCCNC(=N)N)NC(=O)[C@@H](N)CSSC[C@@H](C(N)=O)NC1=O [Lfc6, CRRWQWRC-NH2] (H-CRRWQWRC-NH2; disulfide 1-8)	–	60	–	–	–	–	–
-RRWQWR- (cyclo(RRWQWR); SMILES N=C(N)NCCC[C@@H]1NC(=O)[C@H](CCCNC(=N)N)NC(=O)[C@H](Cc2c[nH]c3ccccc23)NC(=O)[C@H](CCC(N)=O)NC(=O)[C@H](Cc2c[nH]c3ccccc23)NC(=O)[C@H](CCCNC(=N)N)NC1=O)	–	–	–	–	–	Single Cut, 75 min	–
-RRWQWRMKKLG- (cyclo(RRWQWRMKKLG); SMILES CSCC[C@@H]1NC(=O)[C@H](CCCNC(=N)N)NC(=O)[C@H](Cc2c[nH]c3ccccc23)NC(=O)[C@H](CCC(N)=O)NC(=O)[C@H](Cc2c[nH]c3ccccc23)NC(=O)[C@H](CCCNC(=N)N)NC(=O)[C@H](CCCNC(=N)N)NC(=O)CNC(=O)[C@H](CC(C)C)NC(=O)[C@H](CCCCN)NC(=O)[C@H](CCCCN)NC1=O)	–	–	–	–	–	Single Cut, 75 min	–
Ac-RRWQWR-NH2	–	–	–	–	–	CH3CO-RRWQ, 75 min; also recorded: CH3CO-RRW, 75 min	–
Ac-RRWQWR-OH	–	–	–	–	–	CH3CO-RRWQ, 75 min; also recorded: CH3CO-RRW, 75 min	–
Ac-RRWWRF-NH2	–	–	–	–	–	CH3CO-RRWW, 75 min; also recorded: CH3CO-RRW, 75 min	–
RRWQWRMKKLG	–	–	–	–	–	RWQWRM, 75 min; also recorded: WQWRM, 75 min	–

— article PMC2937036 (PLoS ONE, 2010)
